In PubChem BioAssay (NCI) one finds GI50 and TGI data, which are given here for eight compounds.

What all share (test): NCI tumour cell line growth inhibition, 48 h
The subject of experiment [1] is TK-10 renal.
In experiment [2] the test system is SF-268 CNS.
Experiment [3] has as its system HOP-92 NSCLC.
In experiment [4] the test system is A549 NSCLC.
For experiment [5], the system named is NCI-H522 lung.
The test system of experiment [6] is CAKI-1 renal.
The subject of experiment [7] is OVCAR-5 ovarian.
The test system of experiment [8] is SW-620 colon.
In experiment [9] the test system is SF-295 CNS.
The subject of experiment [10] is U251 CNS.

The structures appear in SMILES notation.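 All cell lines were grown in 96-well plates and treated with compound for 48 hours. Abbreviation: GI50, concentration required for 50% inhibition of growth. TGI: total growth inhibition.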 Some results are limits rather than exact numbers.

For the compound `CC(C)(C)C(=O)OCOP(=O)(OCOC(=O)C(C)(C)C)C1CC(O)N(O)C1=O` (centres undefined), the GI50 in [1] was 20.2 µM; in experiment [2], 3.54 µM; in experiment [3], 1.84 µM; in [4], 30.7 µM; in [5], 2.95 µM; in [6], 4.87 µM. Moreover, the GI50 was 20.4 µM in experiment [7], 4.46 µM in experiment [8], 15.7 µM in [9] and 3.58 µM in experiment [10]. Besides, the TGI in experiment [1] was more than 100 µM; in [2] it was more than 100 µM; in [3], 8.99 µM; in [4], more than 100 µM; in experiment [5] it was 14.4 µM; in experiment [6] it was more than 100 µM. Also, the TGI was more than 100 µM in experiment [7], more than 100 µM in experiment [8], more than 100 µM in [9] and 44.1 µM in experiment [10].
Take `CC(=O)c1cc(C(=O)c2ccc3c(c2)Sc2ccccc2N3)c2c(C)cc(C)cn12`: the GI50 in experiment [1] was 1.31 µM; in [2], 0.533 µM; in [3] it was 1.24 µM; in [4] it was 0.337 µM; in [5] it was 0.16 µM; in [6] it was 0.529 µM. The GI50 in [7] was 0.794 µM; in experiment [8], 0.372 µM; in experiment [9] it was 0.187 µM; in [10], 0.396 µM. In addition, the TGI in [1] is more than 100 µM; in experiment [2] it was more than 46.3 µM; in [3] it was more than 31 µM; in [4], more than 55.6 µM; in [5] it was 1.08 µM; in experiment [6], 72.9 µM. In addition, the TGI in experiment [7] is more than 100 µM; in experiment [8] it was more than 100 µM; in experiment [9], 0.94 µM; in experiment [10], more than 100 µM.
As for `N/N=C(\C(=O)Nc1ccc(Cl)cc1Cl)C(c1cnc2ccccc2n1)[N+](=O)[O-]` (centres undefined), the TGI in experiment [1], in [2], in experiment [3], in experiment [4], in experiment [5] and in experiment [6] was more than 100 µM each time. The TGI in [7], in [8], in experiment [9] and in [10] was more than 100 µM in each case.
As for `O=C1Nc2c(C(F)(F)F)cccc2[C@@]1(c1ccc(O)cc1)c1ccc(OC(F)(F)F)cc1`, the GI50 in experiment [1] is less than 0.01 µM; in experiment [2], 0.327 µM; in experiment [3], 0.0136 µM; in experiment [4] it was 0.0186 µM; in experiment [5] it was less than 0.01 µM; in experiment [6], 0.0364 µM. For the same compound, the GI50 is 0.0333 µM in experiment [7], 14.1 µM in experiment [8], 0.0193 µM in [9] and 0.319 µM in experiment [10]. The TGI in experiment [1] is less than 0.01 µM; in experiment [2], 17.5 µM; in experiment [3], 0.0802 µM; in experiment [4], 0.0414 µM; in experiment [5] it was less than 0.0194 µM; in [6] it was 0.971 µM. The TGI in experiment [7] was found to be 16 µM; in experiment [8] it was 28.6 µM; in experiment [9], 0.0469 µM; in experiment [10], 20.1 µM.
Take `O=C(c1ccccc1)N1C2CCC1C(C(F)(F)F)=C2C(F)(F)F`: the TGI in [1], in [2], in experiment [3], in experiment [4], in experiment [5] and in experiment [6] was more than 100 µM throughout. The TGI in experiment [7], in experiment [8], in [9] and in experiment [10] was more than 100 µM throughout.
As to `CC1=NOC(=O)/C1=C/c1cccc2ccccc12`, the TGI in experiment [1], in experiment [2], in experiment [3], in experiment [4], in experiment [5] and in [6] was more than 100 µM each time. Moreover, the TGI in [7], in experiment [8], in experiment [9] and in experiment [10] was more than 100 µM each time.
`O=C(O)C[C@H]1CCCCC12CCOC2=O` (some centres undefined): the TGI in experiment [1], in [2], in experiment [3], in experiment [4], in experiment [5] and in experiment [6] was more than 100 µM throughout. Also, the TGI in experiment [7], in experiment [8], in experiment [9] and in experiment [10] was more than 100 µM in each case.
Regarding `COc1ccc2cc(-c3cc4c(oc3=O)-c3ccccc3OC4O)c(=O)oc2c1` (centres undefined), the GI50 in experiment [1] is 19.9 µM; in experiment [2], 16.9 µM; in experiment [3] it was 10.2 µM; in experiment [4], 14.5 µM; in experiment [5], 17 µM; in experiment [6], 14.9 µM. The GI50 was 17.3 µM in experiment [7], 15.9 µM in [8] and 16.4 µM in experiment [10]. The TGI in [1] was determined as 37 µM; in [2], 33.8 µM; in [3], 24.7 µM; in [4] it was 28.2 µM; in experiment [5] it was 37.6 µM; in [6] it was 29.8 µM. The TGI in experiment [7] was found to be 31.3 µM; in [8], 29.7 µM; in experiment [9], 15.3 µM; in experiment [10], 31.4 µM.
